Where “and” joins values, the source holds several entries; their conditions need not be identical. Identical values can stand only once. Toxic doses and inconclusive results are not listed.
System: P388 leukemia ip, CD2F1 mice, survival T/C
Assay: NCI In Vivo Anticancer Drug Screen. Data for tumor model P388 Leukemia (intraperitoneal) in CD2F1 (CDF1) mice
Details: endpoint: median survival time, higher = longer survival
How it was run: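 Mice carrying the transplanted tumor received test compound or vehicle. Survival was recorded in each group, and the value is the treated-group measurement divided by that of the vehicle-treated control group.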

[1] = dose: 50.0 mg/kg/injection, schedule: Q01DX009 (ip), vehicle: saline
[2] = dose: 100.0 mg/kg/injection, schedule: Q01DX009 (ip), vehicle: saline
[3] = dose: 200.0 mg/kg/injection, schedule: Q01DX009 (ip), vehicle: saline
[4] = dose: 15.0 mg/kg/injection, schedule: Q01DX005 (ip), vehicle: saline with Tween-80
[5] = dose: 60.0 mg/kg/injection, schedule: Q01DX005 (ip), vehicle: Klucel (hydroxypropylcellulose) (HPC)
[6] = dose: 120.0 mg/kg/injection, schedule: Q01DX005 (ip), vehicle: Klucel (hydroxypropylcellulose) (HPC)
[7] = dose: 240.0 mg/kg/injection, schedule: Q01DX005 (ip), vehicle: Klucel (hydroxypropylcellulose) (HPC)

## Cn1c(=O)c2nc(-c3ccc(Cl)c(Cl)c3)oc2n(C)c1=O
[1]
  T/C: 109 % of control
[2]
  T/C: 111 % of control
[3]
  T/C: 100 % of control

## COc1ccc(CC(=O)C(=O)O)cc1OCc1ccccc1
dose: 50.0 mg/kg/injection, schedule: Q04DX003 (ip), vehicle: saline with Tween-80
  T/C: 96 % of control
dose: 200.0 mg/kg/injection, schedule: Q04DX003 (ip), vehicle: saline with Tween-80
  T/C: 101 % of control
dose: 400.0 mg/kg/injection, schedule: Q04DX003 (ip), vehicle: saline with Tween-80
  T/C: 99 % of control

## CCC(C)(Oc1ccc(Cc2ccc(Cl)cc2)cc1)C(=O)OCc1cccnc1 (centres undefined)
dose: 50.0 mg/kg/injection, schedule: Q01DX009 (ip), vehicle: suspension in saline
  T/C: 95 % of control
dose: 100.0 mg/kg/injection, schedule: Q01DX009 (ip), vehicle: suspension in saline
  T/C: 95 % of control
dose: 200.0 mg/kg/injection, schedule: Q01DX009 (ip), vehicle: suspension in saline
  T/C: 94 % of control

## O=C1C(=O)c2ncccc2-c2ncccc21
dose: 7.5 mg/kg/injection, schedule: Q01DX005 (ip), vehicle: saline with Tween-80
  T/C: 113 % of control
[4]
  T/C: 95 % of control

## CC(C)=C(C#N)N(C)C(C)(C)C
[1]
  T/C: 100 % of control
[2]
  T/C: 97 % of control

## COC(=O)C1=NC(c2ccccc2)(c2ccccc2)C(C(=O)OC)=C(C(=O)OC)P(c2ccccc2)(c2ccccc2)=C1C(=O)OC
dose: 50.0 mg/kg/injection, schedule: Q01DX005 (ip), vehicle: Klucel (hydroxypropylcellulose) (HPC)
  T/C: 88 % of control
dose: 100.0 mg/kg/injection, schedule: Q01DX005 (ip), vehicle: Klucel (hydroxypropylcellulose) (HPC)
  T/C: 92 % of control
dose: 200.0 mg/kg/injection, schedule: Q01DX005 (ip), vehicle: Klucel (hydroxypropylcellulose) (HPC)
  T/C: 110 % of control

## Cn1c(C(=O)c2cc3ccccc3n2C)cc2ccccc21
[1]
  T/C: 100 % of control
[2]
  T/C: 97 % of control
[3]
  T/C: 103 % of control

## CCCCCCCCCCNCCSSc1ccccc1
dose: 6.25 mg/kg/injection, schedule: Q01DX005 (ip), vehicle: Klucel (hydroxypropylcellulose) (HPC)
  T/C: 95 % of control
dose: 12.5 mg/kg/injection, schedule: Q01DX005 (ip), vehicle: Klucel (hydroxypropylcellulose) (HPC)
  T/C: 100 % of control
dose: 25.0 mg/kg/injection, schedule: Q01DX005 (ip), vehicle: Klucel (hydroxypropylcellulose) (HPC)
  T/C: 102 % of control

## CC(C)(C)CC(C)(C)c1ccc(OCCO)cc1
dose: 50.0 mg/kg/injection, schedule: Q04DX003 (ip), vehicle: saline
  T/C: 91 % of control
dose: 100.0 mg/kg/injection, schedule: Q04DX003 (ip), vehicle: saline
  T/C: 108 % of control

## CC(=O)C1(O)Cc2c(O)c3c(c(O)c2C(OC2CC(N)C(O)C(C)O2)C1C)C(=O)c1ccccc1C3=O (centres undefined)
dose: 0.6 mg/kg/injection, schedule: Q04DX003 (ip), vehicle: water
  T/C: 100 % of control
dose: 1.2 mg/kg/injection, schedule: Q04DX003 (ip), vehicle: water
  T/C: 108 % of control
dose: 2.4 mg/kg/injection, schedule: Q04DX003 (ip), vehicle: water
  T/C: 108 % of control
dose: 4.8 mg/kg/injection, schedule: Q04DX003 (ip), vehicle: water
  T/C: 106 % of control
dose: 9.6 mg/kg/injection, schedule: Q04DX003 (ip), vehicle: water
  T/C: 118 % of control

## CN1CCN(Cc2ccc(Nc3ccccc3)cc2)CC1
[5]
  T/C: 105 % of control
[6]
  T/C: 108 % of control
[7]
  T/C: 98 % of control

## CCOC(=O)C1=C(c2ccccc2)N=c2ccccc2=S1C (centres undefined)
[4]
  T/C: 96 % of control
dose: 30.0 mg/kg/injection, schedule: Q01DX005 (ip), vehicle: saline with Tween-80
  T/C: 99 % of control
dose: 60.0 mg/kg/injection, schedule: Q01DX005 (ip), vehicle: saline with Tween-80
  T/C: 98 % of control and 94 % of control

## CCOC(=O)Nc1nc2ccc([N+](=O)[O-])cc2s1
dose: 6.25 mg/kg/injection, schedule: Q01DX009 (ip), vehicle: Klucel (hydroxypropylcellulose) (HPC)
  T/C: 104 % of control
dose: 12.5 mg/kg/injection, schedule: Q01DX009 (ip), vehicle: Klucel (hydroxypropylcellulose) (HPC)
  T/C: 107 % of control
dose: 25.0 mg/kg/injection, schedule: Q01DX009 (ip), vehicle: Klucel (hydroxypropylcellulose) (HPC)
  T/C: 105 % of control

## CC1=C(C)Cn2c(=O)c3cc4ccccc4cc3c(=O)n2C1
dose: 50.0 mg/kg/injection, schedule: Q01DX009 (ip), vehicle: Klucel (hydroxypropylcellulose) (HPC)
  T/C: 90 % of control
dose: 100.0 mg/kg/injection, schedule: Q01DX009 (ip), vehicle: Klucel (hydroxypropylcellulose) (HPC)
  T/C: 90 % of control

## CCOC(=O)C12CCCC1=NN=C2C1=NN=C2CCCC21C(=O)OCC (centres undefined)
dose: 60.0 mg/kg/injection, schedule: Q01DX005 (ip), vehicle: saline
  T/C: 103 % of control
dose: 120.0 mg/kg/injection, schedule: Q01DX005 (ip), vehicle: saline
  T/C: 98 % of control
dose: 240.0 mg/kg/injection, schedule: Q01DX005 (ip), vehicle: saline
  T/C: 101 % of control

## O=C1C2=C(/C=C/c3ccccc3)OCCC2=NN1c1ccccc1
[5]
  T/C: 94 % of control
[6]
  T/C: 98 % of control
[7]
  T/C: 109 % of control

## Cc1c2c(cc3c4ccccc4n(C)c13)C(=O)c1ccccc1C2=O
dose: 100.0 mg/kg/injection, schedule: Q04DX002 (ip), vehicle: saline with Tween-80
  T/C: 90 % of control
dose: 200.0 mg/kg/injection, schedule: Q04DX002 (ip), vehicle: saline with Tween-80
  T/C: 87 % of control
dose: 400.0 mg/kg/injection, schedule: Q04DX002 (ip), vehicle: saline with Tween-80
  T/C: 92 % of control
